Measured values published in patent US8889704B2 (Array BioPharma Inc., priority 2011, dated 2014).
Where a name gives a salt, the structure may show the parent alone.

Tests used:
Format in all cases: biochemical
recombinant rat PIM-3 = recombinant rat PIM-3 (Rattus norvegicus, UniProt O70444); assay: PIM-3 Assay (as Example A); details: averaged IC50; 30 μM ATP, 3.75 μM PIM2tide, 0.5 nM PIM-3
Summary of the method: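 Recombinant rat PIM-3 (0.5 nM) with 3.75 μM PIM2tide and 30 μM [γ-33P]ATP in MOPS pH 7.4 buffer, 60 min at 22 °C; labelled peptide captured on phosphocellulose filters and counted by scintillation. 10-point curve (top dose 10 μM, 2% DMSO); IC50 from 4-parameter fit of percent of control.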

[1] = molecular target: T1, GST-tagged recombinant full-length human Pim-2 (Homo sapiens, UniProt Q9P1W9); assay: PIM-2 Assay (as Example A); details: averaged IC50; 4 μM ATP, 1.0 μM PIM2tide, 1.5 nM Pim-2
T1 construct: GST-tagged recombinant full-length human Pim-2; GST
Summary of the method: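 Radiometric filter-binding assay: GST-tagged full-length human Pim-2 (1.5 nM) phosphorylates 1.0 μM PIM2tide with 4 μM [γ-33P]ATP for 60 min at 22 °C in pH 7.4 MOPS buffer, 2% DMSO. 10-point 3-fold dilutions from 10 μM top dose; IC50 from 4-parameter fit of percent of control.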

PIM-1 = PIM-1 (Homo sapiens, UniProt P11309); assay: Enzyme PIM-1 Assay ([33P]ATP incorporation into PIM2tide, filter plate); details: averaged IC50; 35 μM ATP, 7.5 μM PIM2tide, 0.25 nM PIM-1, 60 min at 22° C.
Summary of the method: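 Radiometric assay: 0.25 nM PIM-1 phosphorylates 7.5 μM PIM2tide with 35 μM [γ-33P]ATP in 20 mM MOPS pH 7.4, 10 mM MgCl2, 1 mM DTT, 0.005% Tween-20, 60 min at 22 °C. Product captured on P81 filters, scintillation counted; 10-point 3-fold curve from 10 μM top, 2% DMSO, IC50 by 4-parameter logistic fit of POC.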

Chain of PIM-1 (P11309 whole entry, species assumed): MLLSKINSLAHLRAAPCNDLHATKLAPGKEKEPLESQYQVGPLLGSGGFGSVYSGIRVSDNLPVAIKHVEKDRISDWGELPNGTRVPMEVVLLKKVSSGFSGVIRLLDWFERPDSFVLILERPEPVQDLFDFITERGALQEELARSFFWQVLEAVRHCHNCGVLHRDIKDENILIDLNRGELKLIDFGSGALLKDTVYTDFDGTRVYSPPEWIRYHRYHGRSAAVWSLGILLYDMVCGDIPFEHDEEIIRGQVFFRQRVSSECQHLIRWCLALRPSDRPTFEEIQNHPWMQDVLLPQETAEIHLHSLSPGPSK
T1 sequence (Q9P1W9 whole entry): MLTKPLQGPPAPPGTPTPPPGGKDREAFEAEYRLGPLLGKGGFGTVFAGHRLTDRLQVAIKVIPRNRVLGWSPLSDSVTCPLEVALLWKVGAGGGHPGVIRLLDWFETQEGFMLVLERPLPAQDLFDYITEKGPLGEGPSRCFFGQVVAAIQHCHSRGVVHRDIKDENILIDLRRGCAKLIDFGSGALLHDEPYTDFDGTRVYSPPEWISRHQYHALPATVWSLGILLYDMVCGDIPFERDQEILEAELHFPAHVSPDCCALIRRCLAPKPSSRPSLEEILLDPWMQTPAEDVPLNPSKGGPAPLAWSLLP

IC50 (recombinant rat PIM-3)	IC50 [1]	IC50 (PIM-1)	SMILES
6.1 nM	1820 nM	1.68 nM	Cc1oc(=O)oc1COC(=O)N[C@H]1CCN([C@H](c2ccc3nnc(-c4ccc5cc(F)c(OCCO)cc5n4)n3c2)C(F)(F)F)C1 [Example 321, (5-methyl-2-oxo-1,3-dioxol-4-yl)methyl ((S)-1-((R)-2,2,2-trifluoro-1-(3-(6-fluoro-7-(2-hydroxyethoxy)quinolin-2-yl)-[1,2,4]triazolo[4,3-a]pyridin-6-yl)ethyl)pyrrolidin-3-yl)carbamate]
0.1 nM	22.7 nM	0.08 nM	CO[C@@H](C)COc1cc2nc(-c3nnc4ccc([C@H](N5CC[C@](C)(N)C5)C(F)(F)F)cn34)ccc2cc1F [Example 322, (S)-3-methyl-1-((S)-2,2,2-trifluoro-1-(3-(6-fluoro-7-((S)-2-methoxypropoxy)quinolin-2-yl)-[1,2,4]triazolo[4,3-a]pyridin-6-yl)ethyl)pyrrolidin-3-amine di-hydrochloride]
0.2 nM	145 nM	0.14 nM	CO[C@@H](C)COc1cc2nc(-c3nnc4ccc([C@@H](N5CC[C@H](N)C5)C(F)(F)F)cn34)ccc2cc1F [Example 323, (S)-1-((R)-2,2,2-trifluoro-1-(3-(6-fluoro-7-((S)-2-methoxypropoxy)quinolin-2-yl)-[1,2,4]triazolo[4,3-a]pyridin-6-yl)ethyl)pyrrolidin-3-amine di-hydrochloride]
0.21 nM	44.6 nM	0.18 nM	CO[C@H](C)COc1cc2nc(-c3nnc4ccc([C@H](N5CC[C@](C)(N)C5)C(F)(F)F)cn34)ccc2cc1F [Example 324, (S)-3-methyl-1-((S)-2,2,2-trifluoro-1-(3-(6-fluoro-7-((R)-2-methoxypropoxy)quinolin-2-yl)-[1,2,4]triazolo[4,3-a]pyridin-6-yl)ethyl)pyrrolidin-3-amine di-hydrochloride]
0.13 nM	102 nM	0.06 nM	CO[C@H](C)COc1cc2nc(-c3nnc4ccc([C@@H](N5CC[C@H](N)C5)C(F)(F)F)cn34)ccc2cc1F [Example 325, (S)-1-((R)-2,2,2-trifluoro-1-(3-(6-fluoro-7-((R)-2-methoxypropoxy)quinolin-2-yl)-[1,2,4]triazolo[4,3-a]pyridin-6-yl)ethyl)pyrrolidin-3-amine di-hydrochloride]
1.36 nM	588 nM	0.31 nM	COCCOc1ccc2cc(F)c(-c3nnc4ccc([C@@H](N5CC[C@H](N)C5)C(F)(F)F)cn34)nc2c1 [Example 326, (S)-1-((R)-2,2,2-trifluoro-1-(3-(3-fluoro-7-(2-methoxyethoxy)quinolin-2-yl)-[1,2,4]triazolo[4,3-a]pyridin-6-yl)ethyl)pyrrolidin-3-amine]
1.39 nM	748 nM	0.33 nM	CO[C@H](C)COc1ccc2cc(F)c(-c3nnc4ccc([C@@H](N5CC[C@H](N)C5)C(F)(F)F)cn34)nc2c1 [Example 328, (S)-1-((R)-2,2,2-trifluoro-1-(3-(3-fluoro-7-((R)-2-methoxypropoxy)quinolin-2-yl)-[1,2,4]triazolo[4,3-a]pyridin-6-yl)ethyl)pyrrolidin-3-amine]
